The results in this text go back to BindingDB's records for patent US20250109139 (Shanghaitech University, 2025).

The term Ki denotes the dissociation constant of the complex between target and ligand, obtained from inhibition or displacement. A higher Ki goes with lower affinity.

This test deals with D(2) dopamine receptor (Homo sapiens, UniProt P14416). As to the kind of experiment: Radioligand Competition Binding Assay. On the procedure: A 10 cm culture dish was used for transfection with […] of dopamine D2 receptors and 40 μL of polyethylenimine (PEI hereafter). […] A vacuum pump was used to suck off the culture medium, 3 mL of lysis buffer was added to each culture dish, and the cells were placed in a 4° C. cold room for 10 minutes. After the cells were detached, the cells were transferred to a 15 mL centrifuge tube and centrifuged at 1500 rpm for 5 minutes at 4° C., and the supernatant was discarded. The cell pellet was transferred to a tissue homogenizer, and 3 mL of lysis buffer was added and fully ground until the cells were broken. Then, cell suspension was equally aliquoted into several EP tubes, centrifuged at 12000 rpm for 5 minutes at 4° C., and the supernatant was discarded. […] First, a standard binding buffer was added to the cell membrane component containing the dopamine D2 receptors, and the cell membrane was disrupted and resuspended with an electric tissue homogenizer. 30 μL of membrane protein suspension was added to each well of a 96-well plate. […] Next, 30 μL of [3H]-Methylspiperone was added to each well of the 96-well plate. […] The machine readout value reflected the amount of [3H]-Methylspiperone bound on the membrane, and after further data processing, the affinity Ki values of different compounds for the dopamine D2 receptors were obtained.
On the technique in general: In a radioligand displacement assay an active substance lowers the binding of a labelled ligand.

Sequence of D(2) dopamine receptor (P14416 whole entry): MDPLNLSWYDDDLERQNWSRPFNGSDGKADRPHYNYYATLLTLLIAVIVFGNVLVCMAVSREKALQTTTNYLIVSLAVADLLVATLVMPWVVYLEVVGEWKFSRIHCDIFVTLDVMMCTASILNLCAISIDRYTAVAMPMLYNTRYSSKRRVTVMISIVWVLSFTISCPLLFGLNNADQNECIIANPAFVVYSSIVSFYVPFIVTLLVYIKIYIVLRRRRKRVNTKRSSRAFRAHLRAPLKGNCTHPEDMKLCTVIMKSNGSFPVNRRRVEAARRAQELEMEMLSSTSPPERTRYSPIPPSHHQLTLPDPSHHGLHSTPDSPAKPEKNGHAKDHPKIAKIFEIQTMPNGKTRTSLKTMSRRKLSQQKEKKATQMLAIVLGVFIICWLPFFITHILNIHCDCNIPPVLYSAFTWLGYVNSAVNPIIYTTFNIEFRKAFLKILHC

As for `CCOc1cccc2c3c(oc12)CN(CCCCc1ccc2ccc(=O)[nH]c2c1)CC3` [US20250109139, Compound I-A25], the Ki is 38 nM.
